SMILES strings stand for the structures. Like-named read-outs stand apart in the source and are kept apart here.

The values that follow come from patent publication US20220348590A1, “CYCLOOXYGENASE-2 INHIBITORS AND USES THEREOF” (The Board Institute, Inc., priority 2019, published 2022).

The test deals with T1, human recombinant COX2 (hCOX2) (UniProt P35354).
T1 sequence (P35354 1-604): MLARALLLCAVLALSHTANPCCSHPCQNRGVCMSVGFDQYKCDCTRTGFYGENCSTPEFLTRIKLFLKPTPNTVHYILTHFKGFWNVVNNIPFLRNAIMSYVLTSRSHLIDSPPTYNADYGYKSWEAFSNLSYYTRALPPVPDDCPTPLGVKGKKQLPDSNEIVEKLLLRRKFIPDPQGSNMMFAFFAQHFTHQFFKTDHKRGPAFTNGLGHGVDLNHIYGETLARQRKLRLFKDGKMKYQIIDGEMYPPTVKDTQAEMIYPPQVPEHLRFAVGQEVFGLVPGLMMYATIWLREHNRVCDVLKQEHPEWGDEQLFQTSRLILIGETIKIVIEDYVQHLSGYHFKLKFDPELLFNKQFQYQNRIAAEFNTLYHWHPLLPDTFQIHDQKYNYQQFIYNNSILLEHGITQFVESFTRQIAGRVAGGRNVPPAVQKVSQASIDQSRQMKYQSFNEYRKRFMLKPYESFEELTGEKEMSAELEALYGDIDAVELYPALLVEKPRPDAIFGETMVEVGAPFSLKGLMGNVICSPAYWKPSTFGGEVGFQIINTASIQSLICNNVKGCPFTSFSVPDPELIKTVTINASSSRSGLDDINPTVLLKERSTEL
In words: LCMS-based COX2 enzymatic inhibition assay (PGE2 quantification). The format is biochemical. Also on record: COX2 2 minutes pge2/pge2d4 area ratio Avg; other: 2 minutes; readout pge2/pge2d4 area ratio; average; COX2 2 minutes pge2/pge2d4 area ratio Avg; LLE; average LLE; COX2 2 minutes pge2 area (counts) Avg; readout pge2 area (counts); other: 2 min; "ovine COX2 (oCOX2), human recombinant COX2 (hCOX2)". The settings on record: for COX2 2 minutes pge2/pge2d4 area ratio Avg. LLE / COX2 2 minutes pge2 area (counts) Avg. LLE / COX2 10 minutes pge2 area (counts) Avg. LLE: average LLE; for IC50: average. The method, then:
We have adapted a previously reported cyclooxygenase enzymatic assay utilizing LCMS quantification of PGE2 as the product of COX-1 and COX2 catalyzed conversion of arachidonic acid to evaluate the binding properties of newly synthesized ligands [Cao, 2011]. These optimized and miniaturized (384-well plates) LCMS-based COX-1 and COX2 enzymatic assays enabled us to quickly evaluate newly synthesized ligands for COX2 binding affinity and selectivity vs COX-1. Using a shorter ligand-enzyme incubation time in the LCMS assay (2 minutes vs 10 minutes) also permitted us to prioritize ligands with faster binding kinetics. Considering the relatively slow on-rate kinetics of known coxibs, due to their 3-step binding mechanism [Marnett, 2009], we believe that optimizing this critical parameter will be key to the successful development of a COX2 PET tracer. Using these enzymatic assays, we have evaluated>200 newly synthesized ligands against COX2 and >20 ligands against COX-1. Another critical property necessary for a good PET radiotracer is to have low non-specific binding (NSB) to increase the free fraction and maximize the signal to noise ratio. This property can be evaluated using in-vitro protein binding assays, and we have now evaluated>50 newly synthesized ligands in mouse, rat and human plasma protein binding (PPB) assays as well as >15 ligands in a mouse brain protein binding (BPB) assay.
Ovine COX-1 (oCOX-1), ovine COX2 (oCOX2), human recombinant COX2 (hCOX2), arachidonic acid, PGE2, d4-PGD2, and […] (labeled with deuterium atoms at positions 3 and 4) were purchased from Cayman Chemicals (Ann Arbor, Mich.). The cofactors (−)epinephrine and hematin, and the COX inhibitors indomethacin, resveratrol and diclofenac were purchased from Sigma-Aldrich (St. Louis, Mo.). Celecoxib was purchased from 3B PharmaChem International (Wuhan, China). All organic solvents were HPLC grade or better and were purchased from Thermo Fisher (Hanover Park, Ill.). Formic acid was purchased from EMD Chemicals (San Diego, Calif.). Purified water was prepared by using a Millipore Milli-Q purification system (Millipore, Billerica, Mass.). All other chemicals and solvents were ACS reagent grade, unless stated otherwise.
In an Eppendorf tube, 146 μL of 100 mM Tris.HCl (pH 8.0) buffer, 2 μL of 100 μM hematin (co-factor) and 10 μL of 40 mM L-epinephrine (co-factor) were mixed at room temperature. Next, 20 μL of Tris.HCl (pH 8.0) buffer containing 0.2 μg COX2 or 0.1 μg COX-1 (approximately 1 unit of enzyme; 1 unit COX utilizes 1 nmol 02/mg/min at 37° C.) was added, and the solution was incubated at room temperature for 2 min. A 2 μL aliquot of the COX inhibitor in DMSO was added to the enzyme solution and preincubated at 37° C. for 10 min. Negative controls were identical except that 2 μL aliquots of DMSO without inhibitor were used instead.
Each COX reaction was initiated by adding 20 μL of arachidonic acid in Tris.HCl (pH 8.0) buffer to give a final concentration of 5 μM; and the reaction was terminated after 2 min by adding 20 μL of 2.0 M HCl. The surrogate standards d4-PGE2 and d4-PGD2 (10 μL aliquot of 50 ng/mL solution in methanol) were added to correct for errors or degradation during sample handling and for variation in injection volume or instrument response during LC-MS-MS. After 30 min, PGE2, PGD2 and their surrogate standards were extracted from each incubation mixture using 800 μL hexane/ethyl acetate (50:50, v/v). The organic phase was removed, evaporated to dryness, and reconstituted in 100 μL methanol/water (50:50, v/v) for analysis using LC-MS-MS.
The concentration of PGE2 in each sample was measured using LC-MS-MS, and the percent of COX inhibition by each test solution was determined by comparing the amount of PGE2 produced in the experiment with that produced in the negative control incubation. The formation of PGD2 was measured for quality control purposes, since the levels of PGD2 should be proportional to those of PGE2. […]

Setting [1] is: 2 minutes, readout pge2/pge2d4 area ratio.
[2] abbreviates: 2 minutes, readout pge2/pge2d4 area ratio, read-out: COX2 2 minutes pge2/pge2d4 area ratio Avg. IC50.
Setting [3] is: 2 minutes, readout pge2 area (counts).
Where [4] appears, read: 2 minutes, readout pge2 area (counts), read-out: COX2 2 minutes pge2 area (counts) Avg. IC50.
Setting [5] is: 10 minutes, readout pge2 area (counts).
Setting [6] is: 10 minutes, readout pge2 area (counts), read-out: COX2 10 minutes pge2 area (counts) Avg. IC50.
Where [7] appears, read: read-out: COX2 2 minutes pge2/pge2d4 area ratio Avg. IC50 (microM), 2 minutes, readout pge2/pge2d4 area ratio.

In the case of `CS(=O)(=O)c1ccc(-c2cncc(NCc3ccc(F)cn3)n2)cc1` [Compound 221], under setting [1], the “COX2 2 minutes pge2/pge2d4 area ratio Avg. LLE” value is 4.887. Moreover, the IC50 runs as follows: under setting [2], 1.69 µM; under setting [4], 2.69 µM; under setting [6], 1.96 µM. Also, the “COX2 2 minutes pge2 area (counts) Avg. LLE” value (“COX2 2 minutes pge2 area” below) under setting [3] came out at 4.735. For the same molecule, the “COX2 10 minutes pge2 area (counts) Avg. LLE” value (“COX2 10 minutes pge2 area” below) under setting [5] came out at 4.836.
Consider `CS(=O)(=O)c1ccc(-c2cncc(OC[C@@H]3CCCO3)n2)cc1` [Compound 275], for which the “COX2 2 minutes pge2/pge2d4 area ratio Avg. LLE” value under setting [1] is given as 4.054. The “COX2 2 minutes pge2 area” value under setting [3] is listed as 4.054. The IC50 under setting [7] was 5.2 µM.
Regarding `CS(=O)(=O)c1ccc(-c2cncc(NC[C@H]3CCCS3)n2)cc1` (single isomer, unassigned) [Compound 162], the “COX2 2 minutes pge2/pge2d4 area ratio Avg. LLE” value under setting [1] is 4.811. The IC50 under setting [2] worked out at 0.401 µM and the IC50 under setting [4] turned out to be 0.345 µM. In addition, the “COX2 2 minutes pge2 area” value under setting [3] turned out to be 4.888.
For `Cc1ncc(-c2ccc(S(C)(=O)=O)cc2)nc1NCc1cccs1` [Compound 145], the “COX2 2 minutes pge2/pge2d4 area ratio Avg. LLE” value under setting [1] is listed as 4.321. For the same molecule, the IC50 runs as follows: under setting [2], 0.234 µM; under setting [4], 0.217 µM; under setting [6], 0.0388 µM. Also, under setting [3], the “COX2 2 minutes pge2 area” value came out at 4.37. Further, the “COX2 10 minutes pge2 area” value under setting [5] turned out to be 5.186.
As for `CS(=O)(=O)c1ccc(-c2cncc(NC3CCCCC3)n2)cc1` [Compound 180], the “COX2 2 minutes pge2/pge2d4 area ratio Avg. LLE” value under setting [1] was found to be 3.95. The IC50 came to 0.555 µM under setting [2] and 0.514 µM under setting [4]. In addition, the “COX2 2 minutes pge2 area” value under setting [3] turned out to be 3.961.
Regarding `CS(=O)(=O)c1ccc(-n2ccc3ccc(NC(=O)c4cccs4)nc32)cc1` [Compound 311], the IC50 under setting [7] stood at 5.2 µM.
For `Cn1ccc(CNc2cccc(-c3ccc(S(C)(=O)=O)cc3)n2)c1` [Compound 108], under setting [1], the “COX2 2 minutes pge2/pge2d4 area ratio Avg. LLE” value amounted to 3.847. Further, the IC50 is 0.0945 µM under setting [2] and 0.0799 µM under setting [4]. Moreover, under setting [3], the “COX2 2 minutes pge2 area” value came out at 3.926.
For the molecule `CS(=O)(=O)c1ccc(-c2cc(NCc3ccco3)ccn2)cc1` [Compound 235], the IC50 is 2.5 µM under setting [2] and 2.15 µM under setting [4].
On to `CS(=O)(=O)c1ccc(-n2ccc3ccc(/C(=N\O)c4cccs4)nc32)cc1` [Compound 187], for which the IC50 by setting is: under setting [2], 0.629 µM; under setting [4], 0.635 µM.
With `CS(=O)(=O)c1ccc(-c2cncc(NCc3cncs3)n2)cc1` [Compound 201], under setting [1], the “COX2 2 minutes pge2/pge2d4 area ratio Avg. LLE” value amounted to 4.51. For the same molecule, the IC50 runs as follows: under setting [2], 1.01 µM; under setting [4], 0.832 µM. The “COX2 2 minutes pge2 area” value under setting [3] was 4.612.
Taken in the same sequence, the figures for `CS(=O)(=O)c1ccc(-c2cccc(NCc3ccoc3)n2)cn1` [Compound 113] were 4.956, 0.103 µM, 0.122 µM and 4.897.
Consider `CS(=O)(=O)c1ccc(-c2cccc(C(=O)Cc3cccs3)n2)cc1` [Compound 206], for which the “COX2 2 minutes pge2/pge2d4 area ratio Avg. LLE” value under setting [1] is reported as 2.741. Moreover, the IC50 amounted to 1.27 µM under setting [2] and 1.59 µM under setting [4]. For the same molecule, under setting [3], the “COX2 2 minutes pge2 area” value is on record as 2.638.
On to `COc1cc(S(C)(=O)=O)ccc1-c1cccc(NCc2cccs2)n1` [Compound 259], for which, under setting [1], the “COX2 2 minutes pge2/pge2d4 area ratio Avg. LLE” value stood at 1.917. The IC50 under setting [2] worked out at 4.15 µM and the IC50 under setting [4] stood at 3.25 µM. Besides, the “COX2 2 minutes pge2 area” value under setting [3] came out at 2.088.
In the case of `COc1ncc(NCc2cnco2)nc1-c1ccc(S(C)(=O)=O)cc1` [Compound 227], the “COX2 2 minutes pge2/pge2d4 area ratio Avg. LLE” value under setting [1] stood at 4.384. The IC50 under setting [2] is 2.06 µM and the IC50 under setting [4] turned out to be 1.6 µM. Also, under setting [3], the “COX2 2 minutes pge2 area” value amounted to 4.493.
As to `CS(=O)(=O)c1ccc(-c2ncc3ncn(Cc4cccs4)c3n2)cc1` [Compound 164], under setting [1], the “COX2 2 minutes pge2/pge2d4 area ratio Avg. LLE” value stood at 2.595. The IC50 by setting is: under setting [2], 0.411 µM; under setting [4], 0.368 µM; under setting [6], 0.0503 µM. The “COX2 2 minutes pge2 area” value under setting [3] is 2.638. In addition, the “COX2 10 minutes pge2 area” value under setting [5] is recorded as 3.534.
In the case of `CS(=O)(=O)c1ccc(-c2cccc(C3CC3c3ccoc3)n2)cc1` (single isomer, unassigned) [Compound 115, 2-[2-(furan-3-yl)cyclopropyl]-6-(4-methanesulfonylphenyl)pyridine], the “COX2 2 minutes pge2/pge2d4 area ratio Avg. LLE” value under setting [1] was 2.867. Besides, the IC50 reads like this: under setting [2], 0.107 µM; under setting [4], 0.0632 µM. Also, the “COX2 2 minutes pge2 area” value under setting [3] is on record as 2.982.
The matching figures for `COc1cc(S(C)(=O)=O)ccc1-c1cncc(NCc2cccs2)n1` [Compound 179]: 4.286, 0.546 µM, 0.387 µM and 4.322.
In the case of `C[C@H](Nc1cccc(-c2ccc(S(C)(=O)=O)cc2)n1)c1ccoc1` (single isomer, unassigned) [Compound 241], the “COX2 2 minutes pge2/pge2d4 area ratio Avg. LLE” value under setting [1] is reported as 2.087. The IC50 by setting is: under setting [2], 2.96 µM; under setting [4], 4.36 µM. Moreover, the “COX2 2 minutes pge2 area” value under setting [3] was found to be 1.8776.
Turning to `CS(=O)(=O)c1ccc(-c2ccnc(NCc3ccco3)c2)cc1` [Compound 283], the IC50 under setting [7] came out at 5.2 µM.
For `COc1ncc(-c2ccc(S(C)(=O)=O)cc2)nc1NCc1ccncc1` [Compound 230], the “COX2 2 minutes pge2/pge2d4 area ratio Avg. LLE” value under setting [1] was found to be 4.383. The IC50 runs as follows: under setting [2], 2.38 µM; under setting [4], 2.48 µM. In addition, under setting [3], the “COX2 2 minutes pge2 area” value worked out at 4.367.
Regarding `COc1ncc(NCc2cocn2)nc1-c1ccc(S(C)(=O)=O)cc1` [Compound 291], the “COX2 2 minutes pge2/pge2d4 area ratio Avg. LLE” value under setting [1] stood at 3.954. Also, the “COX2 2 minutes pge2 area” value under setting [3] was 3.954. The IC50 under setting [7] was 5.2 µM.
